Consider 3 substances from patent US8133471B2, “CLK-peptide and SLK-peptide” (New York University, priority 2003, dated 2012).

Experiment [1] concerns denatured collagen type-IV. In words: 99Tc-CLK-Peptide competitive binding to denatured collagen type-IV (gamma counter). The conditions noted are these: 99Tc-CLK-peptide 10 μg/ml, 50 μl/well; collagen 10 μg/ml. The protocol:
FIG. 18 Inhibition of 99Tc-CLK-Peptide binding by unlabeled HUI77.
FIG. 19 Inhibition of Binding of Labeled CLK-Peptide to Denatured Collagen Type-IV by mAb HUI77. Denatured collagen type-IV (10 μg/ml) was coated on microtiter wells and binding of 99Tc-labeled CLK-Peptide in the presence or absence of unlabeled CLK-peptide or mAb HUI77 was measured. As shown in the figure, 99Tc-CLK-peptide (10 μg/ml, 50 μl/well) specifically binds to denatured collagen type-IV (first bar from left). […] 99Tc-CLK-peptide was also allowed to bind to denatured collagen type-IV in the presence or absence of Mab HUI77 (fourth and fifth bars from left). […] These findings provide further evidence that the CLK-peptide binds to a similar if not identical epitope recognized by Mab HUI77.
^99Tc-CLK-Peptide was used in competitive binding studies to further characterize the CLK epitope. To evaluate the ability of HUI77 to compete with binding to denatured type-IV collagen, type-IV collagen was denatured at 60° C. for 15 minutes at a concentration of […] in PBS. […] The supernatant, washes and collagen-coated wells were counted in a gamma counter (1 minute counts in duplicate).
In addition, denatured collagen type-IV (10 μg/ml) was coated on microtiter wells and binding of ^99Tc-labeled CLK-Peptide in the presence or absence of either unlabeled CLK-peptide or mAb HUI77 was measured using a gamma counter. […]

Experiment [2] relates to Human endothelial cells (HUVECs). In words: Endothelial cord formation in MATRIGEL
It is filed as cell-based. The conditions noted are these: 0 to 100 μg/ml, 24 hours. The protocol:
FIG. 6 Effects of CLK Peptide on HUVEC Cord Formation in MATRIGEL®. MATRIGEL was added to 96-well plates and allowed to form three-dimensional gels. […] Representative photos were taken at a magnification of 100×. A. Untreated control. B. CLK 25 μg/ml. C. CLK 50 μg/ml. D. CLK 100 μg/ml. E. Control Peptide 100 μg/ml.
The role that the CLK cryptic collagen epitope plays in regulating endothelial cell morphogenesis and cord formation, processes important in angiogenesis, were investigated. MATRIGEL was diluted in M199 medium and 300 μl were added to the wells of a 48-well culture plate and allowed to polymerize. […] Endothelial morphogenesis and cord formation was monitored with an inverted microscope fitted with a 35 mm camera to document cord formation.

Experiment [3] has as its system Human melanoma cells (M21). Nature of the experiment: M21 cell adhesion to denatured or native collagen type-IV or fibronectin (Example 9). The class given is cell-based. The conditions noted are these: 0-100 μg/ml. The protocol:
Non-tissue culture treated 48-well plates were coated with denatured collagen type-IV at 10 μg/ml. […] Cell adhesion was quantified by measuring the O.D. of eluted dye at 600 nm. Data bars represent the mean O.D.±standard deviation from triplicate wells. Assays were completed 2 to 3 times with similar results.
Non-tissue culture treated 48-well plates were coated with native collagen type-IV or fibronectin at 10 μg/ml. Human melanoma cells (M21) were allowed to attach to the coated wells in the presence or absence of CLK-Peptide or control peptide CTW at 0-100 μg/ml. Cell adhesion was quantified by measuring the O.D. of eluted dye at 600 nm. Data bars represent the mean O.D.±standard deviation from triplicate wells. Assays were completed 2 to 3 times with similar results. A. Adhesion to native collagen type-IV. B. Adhesion to Fibronectin.
Adhesion assays were performed to study the effects of CLK-peptide on tumor cell adhesion in vitro. Microtiter wells were coated with either native collagen type-IV or the control ECM protein fibronectin. Malignant melanoma cells (M21) were allowed to bind to the coated substrates in the presence or absence of CLK peptide or a control peptide, CTW.

In experiment [4] the test system is Glioblastoma (GL261) cells. Nature of the experiment: GL261 glioblastoma cell adhesion to collagen type-IV. The class given is cell-based, murine. The conditions noted are these: 50 μg/ml. The protocol: FIG. 21 Effects of CLK-Peptide on Glioblastoma Cell Adhesion to Denatured Collagen Type-IV.
To assess the functional significance of the HUI77/CLK cryptic epitope, cell adhesion assays using a glioblastoma cell line were performed. Microtiter plates were coated with denatured collagen type-IV (10 μg/ml). Glioblastoma (GL261) cells were resuspended in adhesion buffer in the presence or absence of CLK-peptide or a non-specific control (CTW) peptide (50 μg/ml) and the […] were incubated in the coated wells for 30 minutes. Non-attached cells were removed by washing, and attached cells quantified by staining with crystal violet.

The test system of experiment [5] is Human melanoma cells M21. Nature of the experiment: M21 melanoma cell adhesion to denatured collagen type-IV (Example 2). The class given is cell-based. The following applies: M21 cells on denatured collagen type-IV; peptide 250 μg/ml. The text has this:
FIG. 1 is a chart which illustrates M21 human melanoma cell adhesion to untreated denatured type-IV collagen (NT), CLK-peptide treated denatured collagen type-IV, SLK-peptide treated denatured collagen type-IV, and SDR-peptide treated denatured collagen type-IV.
SLK peptides bind to functional epitopes within denatured collagen type-IV that regulate cellular adhesion. Non-tissue culture treated 48-well plates were coated with denatured collagen type-IV. Human melanoma cells M21 (Scripps Research Institute, La Jolla, Calif.) were allowed to attach to the coated wells in the presence or absence of the synthetic peptides CLK, SLK, and SDR, each peptide was at a concentration of 250 μg/ml. SDR peptide is a commercially available peptide that was used as a control (QED Bioscience, Inc., San Diego, Calif.).
Human denatured collagen type-IV (25 μg/ml) was immobilized on 48-well nontissue culture treated plates. Wells were washed and incubated with 1% BSA (bovine serum albumin) in PBS (phosphate-buffered saline) for one hour at 37° C. Subconfluent […] were harvested, washed, and resuspended in adhesion buffer containing RPMI-1640 medium, 1 mM MgCl2, 0.2 mM MnCl2, and 0.5% BSA. […] Cell adhesion was quantified by measuring the optical density of eluted crystal violet at a wavelength of 600 nm.

No end group written: not given here.

In the case of “99Tc-CLK-peptide: 99Tc-labeled CLK-Peptide used in competitive binding studies (CLKQNGGNFSLG; also: 99Tc-labeled, site not given here)”, in experiment [1], the “binding to denatured collagen type-IV” value is given as “specifically bound”.

With “CTWPRHHTTDALL (control peptide) [reference compound]”, the “effect on endothelial cord formation” value in experiment [2] was “little if any effect”. Further, in experiment [3], the “effect on M21 cell adhesion to fibronectin” value is recorded as “Neither CLK-Peptide nor the control peptide had any effect”, the “effect on M21 cell adhesion to native triple helical collagen type-IV” value is reported as “Neither CLK-Peptide nor the control peptide had any effect” and the “effect on M21 cell attachment to denatured collagen type-IV” value is listed as “no effect”. In experiment [4], the “effect on glioblastoma cell adhesion to denatured collagen type-IV” value is given as “no effect”.

For the substance “NH2-S-L-K-Q-N-G-G-N-F-S-L-C-COOH (H-SLKQNGGNFSLC-OH) [SLK-peptide]”, the “blockade of melanoma cell adhesion” value in experiment [5] is “about 50%”.
